smiles,measurement,value
NCC(=O)C[PH](=O)O,melting point,126 to 127 °C

# Reference: patent publication US7807658B2, “Use of GabaB receptor agonists” (AstraZeneca AB, priority 1999, dated 2010)
